Source: patent publication US20210169883A1, “METHOD OF TREATING AGGRESSION WITH OREXIN RECEPTOR ANTAGONISTS” (Icahn School of Medicine at Mount Sinai, priority 2018, published 2021)
“Also recorded” adds a separate entry of the source. Like-named read-outs stand apart in the source and are kept apart here.

How the values were obtained:
male CD-1 mice [1] = test: Social recognition test; format: in vivo, mouse; conditions: 30 mg/kg EMPA or 20 mg/kg seltorexant IP; one-way ANOVA
Protocol: (§1) Vehicle comparison for these drugs consisted of 75% DMSO in sterile water alone. SR-9659 was dissolved in 20% DMSO in sterile water. Vehicle comparison for this drug consisted of 20% DMSO in water alone. All drugs were administered intraperitoneally (IP) 30 minutes before behavioral testing. All injection volumes were limited to 100 μl.
Mice were presented with two conspecific mice in a first (training) session, and then one of the two conspecific mice was replaced with an unfamiliar mouse in a second (test) session. The time spent by the test mouse investigating each conspecific mouse provided and index of social memory. This was calculated by subtracting the time spent with the novel mouse from the time spent with the familiar mouse.

[2] = tested on: aggressive (AGG) CD-1 mice; test: Resident intruder (RI) test, acute systemic EMPA (Example 1); format: in vivo, mouse
Protocol: Aggression screening was performed as previously described by utilizing the resident intruder (RI) test (6). After a minimum of one week of habituation to home cages, experimental mice were exposed to a novel C57BL/6J intruder for 3 min daily over 3 consecutive days. Each intruder presentation was performed in the home cage of the experimental mouse between 12-3 PM daily under white light conditions. During RI sessions the cage top was removed to allow for unobstructed viewing and video recording of sessions. The duration and number of screening sessions were selected to prevent induction of stress- and anxiety-related behaviors in experimental CD-1 or F1 hybrid mice (6). All RI sessions were video recorded with a digital color video camera. Two blind observers recorded (1) the latency to initial aggression and (2) the total duration of aggression. The initiation of aggression was defined by the first clear physical antagonistic interaction initiated by the resident mouse (usually a bite), not including grooming or pursuit behavior. Aggression was considered completed when the resident mouse had reoriented away from the intruder following the initiation of attack. This definition allows for slight breaks (less than 5 s) in continuous physical interaction within an aggressive bout, assuming the resident mouse has remained oriented towards the intruder throughout. […]

[3] = tested on: aggressive (AGG) male CD-1 mice; format: in vivo, mouse
Protocol: Aggression screening was performed as previously described by utilizing the resident intruder (RI) test (Golden et al., 2016b). After a minimum of one week of habituation to home cages, experimental mice were exposed to a novel C57BL/6J intruder for 3 min daily over 3 consecutive days. Each intruder presentation was performed in the home cage of the experimental mouse between 12-3 PM daily under white light conditions. During RI sessions the cage top was removed to allow for unobstructed viewing and video recording of sessions. The duration and number of screening sessions were selected to prevent induction of stress- and anxiety-related behaviors in experimental mice (Golden et al., 2016b). All RI sessions were video recorded with a digital color video camera. Two blind observers recorded (1) the latency to initial aggression and (2) the total duration of aggression. The initiation of aggression was defined by the first clear physical antagonistic interaction initiated by the resident mouse (usually a bite), not including grooming or pursuit behavior. Aggression was considered completed when the resident mouse had reoriented away from the intruder following the initiation of attack. This definition allows for slight breaks (less than 5 s) in continuous physical interaction within an aggressive bout, assuming the resident mouse has remained oriented towards the intruder throughout.
as §1, with “(I.P.)” for “(IP)”
First, mice were screened for three consecutive days in the RI test. Only AGGs were selected for subsequent pharmacology experiments, as it was hypothesized that treatment with orexin antagonists would reduce aggression. […] 24 hours following the last RI test, mice were treated again with either drug or vehicle and anxiety and locomotion were assessed using the open field test.

male CD-1 mice [4] = test: Object placement test (spatial memory); format: in vivo, mouse; conditions: 30 mg/kg EMPA or 20 mg/kg seltorexant IP; one-way ANOVA
Protocol: as §1
Mice were presented with two of the same object in a first (training) session, and then one of the two objects was moved to a different location in the arena during a second (test) session. The time spent investigating each object provided an index of spatial memory. This was calculated by subtracting the time spent with the object in the familiar location from the time spent with the object in the novel location.

[5] = tested on: aggressive (AGG) CD-1 mice; test: Aggression conditioned place preference (CPP), systemic EMPA (Example 1); format: in vivo, mouse; conditions: EMPA 30 mg/kg I.P., vs vehicle, between-subjects
Protocol: The aggression CPP protocol was carried out according to Golden et al. (6). Briefly, this task consisted of three phases: pre-test, acquisition (conditioning), and test. Mice were acclimated to the testing facility for 1 h before all testing. All phases were conducted under red light and sound-attenuated conditions. The CPP apparatus (Med Associates) consisted of two unique conditioning chambers with a neutral middle zone that allowed for unbiased entry into either conditioning chamber at the initiation of each trial. During the pre-test phase, mice were placed into the middle chamber of the conditioning apparatus and allowed to freely explore the apparatus for 20 min. There were no group differences in bias for either chamber, and conditioning groups were balanced in an unbiased fashion to account for pre-test preference. The acquisition phase consisted of three consecutive days with two conditioning trials each day for a total of 6 acquisition trials. Morning trials (between 8-10 AM) and afternoon trials (between 3-5 PM) consisted of experimental mice confined to one chamber for 10 min while in the presence or absence of a novel C57BL/6J intruder mouse. All groups were counterbalanced for the conditioning chamber. […] Total locomotor activity was also recorded to ensure equal exploratory behavior between groups. […]

male CD-1 mice [6] = test: Object recognition test; format: in vivo, mouse; conditions: 30 mg/kg EMPA or 20 mg/kg seltorexant IP; one-way ANOVA
Protocol: as §1
Mice were presented with two different objects in a first (training) session, and then one of the two objects was replaced with a new object during a second (test) session. The time spent investigating each object provided an index of object recognition memory. This was calculated by subtracting the time spent with the familiar object from the time spent with the novel object.

[7] = cited from earlier work; for abuse potential: human, in vivo
OX1R = molecular target: T1, OX1R (Homo sapiens, UniProt O43613); conditions: less potent; cited from earlier work
T1 sequence (O43613 1-425): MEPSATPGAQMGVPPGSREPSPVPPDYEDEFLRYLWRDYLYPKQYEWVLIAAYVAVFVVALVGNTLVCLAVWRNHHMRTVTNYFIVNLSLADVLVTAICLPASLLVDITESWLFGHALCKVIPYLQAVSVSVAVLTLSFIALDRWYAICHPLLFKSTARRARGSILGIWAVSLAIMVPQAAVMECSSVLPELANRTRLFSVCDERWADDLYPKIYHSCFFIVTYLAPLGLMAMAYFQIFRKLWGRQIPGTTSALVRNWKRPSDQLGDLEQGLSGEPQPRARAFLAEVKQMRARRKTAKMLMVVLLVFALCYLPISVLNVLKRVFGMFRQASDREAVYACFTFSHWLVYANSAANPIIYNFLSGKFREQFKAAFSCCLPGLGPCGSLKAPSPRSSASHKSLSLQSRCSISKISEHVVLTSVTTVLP

OX2R = molecular target: T2, OX2R (Homo sapiens, UniProt O43614); conditions: cited from earlier work
T2 sequence (O43614 1-444): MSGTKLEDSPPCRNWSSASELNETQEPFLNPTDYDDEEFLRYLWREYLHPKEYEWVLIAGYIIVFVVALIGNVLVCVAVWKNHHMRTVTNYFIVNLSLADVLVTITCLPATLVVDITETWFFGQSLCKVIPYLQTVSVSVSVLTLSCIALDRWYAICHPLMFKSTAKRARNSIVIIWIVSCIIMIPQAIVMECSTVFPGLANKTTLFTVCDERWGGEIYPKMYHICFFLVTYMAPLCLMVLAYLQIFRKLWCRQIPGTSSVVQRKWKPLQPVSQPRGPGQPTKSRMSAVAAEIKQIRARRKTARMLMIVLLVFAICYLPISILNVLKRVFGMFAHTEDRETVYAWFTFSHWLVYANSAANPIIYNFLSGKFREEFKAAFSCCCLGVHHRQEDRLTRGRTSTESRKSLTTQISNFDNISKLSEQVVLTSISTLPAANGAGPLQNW

[8] = tested on: putative glutamatergic LHb neurons; test: Slice optogenetic stimulation of LHb GAD2 neurons recording; format: cell-based, mouse
[9] = three days of RI, daily I.P. 30 min before test, EMPA 30 mg/kg, seltorexant 20 mg/kg, suvorexant 20 mg/kg

Compound: CCN(Cc1cccnc1)C(=O)CN(c1ccc(OC)nc1)S(=O)(=O)c1ccccc1C [EMPA, N-ethyl-2-[(6-methoxy-pyridin-3-yl)-(toluene-2-sulphonyl)-amino]-N-pyridin-3-ylmethyl-acetamide]
- time spent with each mouse compared to vehicle treatment (social recognition, FIG. 18A) (male CD-1 mice [1]): did not alter
- attack duration in RI test ([2]; EMPA 30 mg/kg I.P. 25 min before test, vs vehicle, within-subjects): reduced
- aggression (in RI) ([2]; systemic EMPA, 30 mg/kg, acute): reduces aggression; also recorded: reduced
- effects of OxR2 antagonism on aggression, EMPA versus seltorexant ([3]; over the three days of RI): virtually indistinguishable
- latency to attack [3, 9]: increased
- total duration of attack [3, 9]: reduced
- time spent with each object compared to vehicle treatment (spatial memory, object placement, FIG. 18B) (male CD-1 mice [4]): did not alter
- aggression CPP [5]: reduced
- time spent with each object compared to vehicle treatment (object recognition memory, FIG. 18C) (male CD-1 mice [6]): did not alter

Compound: Cc1cc(C)nc(N2CC3CN(C(=O)c4c(F)cccc4-n4nccn4)CC3C2)n1 (stereo not shown) [seltorexant]
- time spent with each mouse compared to vehicle treatment (social recognition, FIG. 18A) (male CD-1 mice [1]): did not alter
- abuse potential [7]: low abuse potential
- effects of OxR2 antagonism on aggression, EMPA versus seltorexant ([3]; mouse, in vivo): virtually indistinguishable
- latency to attack ([3]; mouse, in vivo): increased
- total duration of attack ([3]; mouse, in vivo): reduced
- time spent with each object compared to vehicle treatment (spatial memory, object placement, FIG. 18B) (male CD-1 mice [4]): did not alter
- time spent with each object compared to vehicle treatment (object recognition memory, FIG. 18C) (male CD-1 mice [6]): did not alter

Compound: Cc1ccc(-n2nccn2)c(C(=O)N2CCN(c3nc4cc(Cl)ccc4o3)CC[C@H]2C)c1 [suvorexant]
- abuse potential [7]: low abuse potential
- tolerability in patient populations ([7]; variety of patient populations): well tolerated
- reduction / attenuation of aggressive behavior ([3]; RI test, doses tested): some attenuation of aggression
- number of mice that attacked, drug vs vehicle ([3]; any day of RI, suvorexant 20 mg/kg I.P., SR-9659 I.P.): no differences
- latency to attack [3, 9]: only altered attack latency and duration on day 3
- total duration of attack [3, 9]: only altered attack latency and duration on day 3

Compound: orexin-B
- potency in activating OX1R relative to orexin-A (OX1R): 10 fold
- potency towards OX2R relative to orexin-A (OX2R): equipotent

Compound: picrotoxin
- optically elicited monosynaptic inhibitory currents in putative glutamatergic LHb neurons [8]: completely blocked
